Source: patent publication US6933260B2, “Avermectin B1 derivatives having an aminosulfonyloxy substituent in the 4′-position” (Syngenta Crop Protection, Inc., priority 2001, dated 2005)

What was measured:
Type in all cases: in vivo
Plutella xylostella = test: Action against Plutella xylostella caterpillars (spray on cabbage plants); conditions: 72 h, 12.5 ppm spray, caterpillars in the first stage, 3 days, read-out: percentage reduction in population and percentage reduction in feeding damage (% activity)
Method: Young cabbage plants are sprayed with an aqueous emulsion spray mixture comprising 12.5 ppm of test compound. After the spray-coating has dried, the cabbage plants are populated with 10 caterpillars of Plutella xylostella in the first stage and placed in a plastics container. Evaluation is made 3 days later. The percentage reduction in population and the percentage reduction in feeding damage (% activity) are determined by comparing the number of dead caterpillars and the feeding damage on the treated plants with that on the untreated plants.

Spodoptera littoralis = test: Action against Spodoptera littoralis (foliar spray on soybean plants); conditions: 72 h, 12.5 ppm spray, caterpillars in the first stage, 3 days, read-out: percentage reduction in population and percentage reduction in feeding damage (% activity)
Method: Young soybean plants are sprayed with an aqueous emulsion spray mixture comprising 12.5 ppm of test compound and, after the spray-coating has dried, the plants are populated with 10 caterpillars of Spodoptera littoralis in the first stage and then placed in a plastics container. 3 days later, the percentage reduction in population and the percentage reduction in feeding damage (% activity) are determined by comparing the number of dead caterpillars and the feeding damage on the treated plants with that on untreated plants.

Tetranychus urticae = test: Action against Tetranychus urticae (spray on bean plants); conditions: 144 h, 12.5 ppm spray, mixed population, 6 days at 25° C., read-out: percentage reduction in population (% activity)
Method: Young bean plants are populated with a mixed population of Tetranychus urticae and sprayed one day later with an aqueous emulsion spray mixture comprising 12.5 ppm of test compound. The plants are incubated for 6 days at 25° C. and subsequently evaluated. The percentage reduction in population (% activity) is determined by comparing the number of dead eggs, larvae and adults on the treated plants with that on untreated plants.

Diabrotica balteata = test: Action against Diabrotica balteata (spray on maize seedlings); conditions: 144 h, 12.5 ppm spray, larvae in the second stage, 6 days, read-out: percentage reduction in population (% activity)
Method: Maize seedlings are sprayed with an aqueous emulsion spray mixture comprising 12.5 ppm of the test compound and, after the spray-coating has dried, the maize seedlings are populated with 10 Diabrotica balteata larvae in the second stage and then placed in a plastics container. 6 days later, the percentage reduction in population (% activity) is determined by comparing the number of dead larvae on the treated plants with that on untreated plants.

Measured: inhibition at 12.5 ppm

CCC(C)[C@H]1O[C@]2(C=C[C@@H]1C)C[C@@H]1C[C@@H](C/C=C(\C)[C@@H](O[C@H]3C[C@H](OC)[C@@H](O[C@H]4C[C@H](OC)[C@@H](OS(N)(=O)=O)[C@H](C)O4)[C@H](C)O3)[C@@H](C)/C=C/C=C3\CO[C@@H]4[C@H](O)C(C)=C[C@@H](C(=O)O1)[C@]34O)O2 (some centres unmarked) [P.1, 4″-sulfamoyloxy-avermectin B1]
> 80%: all assays above

CCNS(=O)(=O)O[C@H]1[C@H](C)O[C@@H](O[C@H]2[C@H](C)O[C@@H](O[C@@H]3/C(C)=C/C[C@@H]4C[C@@H](C[C@]5(C=C[C@H](C)[C@@H](C(C)CC)O5)O4)OC(=O)[C@@H]4C=C(C)[C@@H](O)[C@H]5OC/C(=C\C=C\[C@@H]3C)[C@]54O)C[C@@H]2OC)C[C@@H]1OC (some centres unmarked) [P.3, 4″-ethylaminosulfonyloxy-avermectin B1]
> 80%: Plutella xylostella | Tetranychus urticae | Diabrotica balteata

CCC(C)[C@H]1O[C@]2(C=C[C@@H]1C)C[C@@H]1C[C@@H](C/C=C(\C)[C@@H](O[C@H]3C[C@H](OC)[C@@H](O[C@H]4C[C@H](OC)[C@@H](OS(=O)(=O)N(C)C)[C@H](C)O4)[C@H](C)O3)[C@@H](C)/C=C/C=C3\CO[C@@H]4[C@H](O)C(C)=C[C@@H](C(=O)O1)[C@]34O)O2 (some centres unmarked) [P.7, 4″-dimethylaminosulfonyloxy-avermectin B1]
> 80%: Plutella xylostella | Tetranychus urticae | Diabrotica balteata

CCC(C)[C@H]1O[C@]2(C=C[C@@H]1C)C[C@@H]1C[C@@H](C/C=C(\C)[C@@H](O[C@H]3C[C@H](OC)[C@@H](O[C@H]4C[C@H](OC)[C@@H](OS(=O)(=O)NC)[C@H](C)O4)[C@H](C)O3)[C@@H](C)/C=C/C=C3\CO[C@@H]4[C@H](O)C(C)=C[C@@H](C(=O)O1)[C@]34O)O2 (some centres unmarked) [P.2, 4″-methylaminosulfonyloxy-avermectin B1]
> 80%: all assays above
